Results taken from patent US10519105B2, “KCNQ2-5 channel activator” (ONO PHARMACEUTICAL CO., LTD., priority 2016, dated 2019).
Converted amounts (≈) assume the structure as drawn.

Legend:
[1] = Stability in human liver microsomes; type: in vitro ADME; settings: human liver microsomes 0.5 mg/mL, NADPH, 5 μM, 37° C., 15 minutes
Procedure: A test compound (a 10 mM DMSO solution, 5 μL) was diluted with a 50% aqueous acetonitrile solution (195 μL), whereby a 0.25 mM solution was prepared.
To a reaction vessel preheated to 37° C., 0.5 mg/mL of human liver microsomes (XenoTech, LLC) and 245 JLL of a 0.1 M phosphate buffer solution (pH 7.4) containing NADPH co-factor (BD Biosciences) were added, followed by preincubation for 5 minutes, and thereafter, the above-prepared test compound solution (5 μL) was added thereto to start a reaction (final concentration: 5 μM). Immediately after the start, a 20 μL portion was collected and added to 180 μL of acetonitrile containing an internal standard substance (warfarin) to stop the reaction. A 20 μL portion of this solution was stirred with 180 μL of a 50% aqueous acetonitrile solution on a plate equipped with a deproteinization filter, followed by suction filtration, and the filtrate was used as a standard sample.
After the above-prepared reaction solution was incubated at 37° C. for 15 minutes, a 20 μL portion of the solution was added to 180 μL of cooled acetonitrile (containing warfarin serving as an internal standard substance) to stop the reaction. A 20 μL portion of this solution was stirred with 180 μL of a 50% aqueous acetonitrile solution on a plate equipped with a deproteinization filter, followed by suction filtration, and the filtrate was used as a reaction sample.
A residual ratio (%) was calculated as follows. 1 μL of the sample solution was injected into LC-MS/MS (Discovery Max, manufactured by Thermo Scientific, Inc.), and a value obtained by dividing the peak area ratio of the reaction sample (peak area of test compound/peak area of internal standard substance) by the peak area ratio of the standard sample was multiplied by 100.

Human KCNQ2/3 channel = biological target: T1, Human KCNQ2/3 channel (Homo sapiens, UniProt O43525+O43526); assay: Opening action with respect to KCNQ2/3 channel by depolarization stimulation (thallium influx, FLIPR); type: cell-based; settings: concentration giving 50% of the maximum reaction of retigabine (10 μM); human KCNQ2/3 expressing CHO-DHFR- cells; read-out: KCNQ2/3 ECrtg50
T1 construct: expressed in transfected cells; host or cells: CHO-DHFR- cells
Procedure: Human KCNQ2/3 expression cells (CHO-DHFR− cells) were seeded in each well of a 384-well plate (collagen-coated, black, clear bottom) at 0.5×10^4 cells/50 μL per well and cultured using a MEM ALPHA medium (containing 10 vol % inactivated (56° C., 30 min) fetal bovine serum, 100 IU/mL penicillin, 100 μg/mL streptomycin, and 2 mM L-glutamine) at 37° C. in 5% CO2 for 18 to 24 hours. After the medium in the plate was removed, incubation (room temperature, 60 minutes, shading) was performed in a loading buffer (prepared by the method described in the manual of FluxOR Thallium Detection Kit (Invitrogen, F10016, F10017)). A KCNQ2/3 channel opening action (thallium influx into cells) by depolarization stimulation (5 mM potassium and 0.5 mM thallium) was measured by FLIPR TETRA (Molecular Devices). The compound of the present invention was treated 5 minutes before the depolarization stimulation, and the reaction induced by the depolarization stimulation was measured over time for 180 seconds. The channel opening action of the compound of the present invention was evaluated based on the change amount of the fluorescence intensity from the time before the depolarization stimulation to the time after the elapse of 180 seconds, and the concentration (ECrtg50) satisfying 50% of the fluorescence intensity change of a maximum reaction (in the treatment at 10 μM) of retigabine under the conditions of this experiment was calculated.

hERG IKr current = biological target: T2, hERG IKr current (Homo sapiens, UniProt Q12809); assay: Action on hERG IKr current (patch-clamp, HEK293 cells overexpressing hERG); type: cell-based; settings: maximum tail current, 10 minutes after application, read-out: 50% hERG channel inhibitory activity
T2 construct: expressed in transfected cells; host or cells: HEK293 cells
T2 sequence (Q12809 whole entry): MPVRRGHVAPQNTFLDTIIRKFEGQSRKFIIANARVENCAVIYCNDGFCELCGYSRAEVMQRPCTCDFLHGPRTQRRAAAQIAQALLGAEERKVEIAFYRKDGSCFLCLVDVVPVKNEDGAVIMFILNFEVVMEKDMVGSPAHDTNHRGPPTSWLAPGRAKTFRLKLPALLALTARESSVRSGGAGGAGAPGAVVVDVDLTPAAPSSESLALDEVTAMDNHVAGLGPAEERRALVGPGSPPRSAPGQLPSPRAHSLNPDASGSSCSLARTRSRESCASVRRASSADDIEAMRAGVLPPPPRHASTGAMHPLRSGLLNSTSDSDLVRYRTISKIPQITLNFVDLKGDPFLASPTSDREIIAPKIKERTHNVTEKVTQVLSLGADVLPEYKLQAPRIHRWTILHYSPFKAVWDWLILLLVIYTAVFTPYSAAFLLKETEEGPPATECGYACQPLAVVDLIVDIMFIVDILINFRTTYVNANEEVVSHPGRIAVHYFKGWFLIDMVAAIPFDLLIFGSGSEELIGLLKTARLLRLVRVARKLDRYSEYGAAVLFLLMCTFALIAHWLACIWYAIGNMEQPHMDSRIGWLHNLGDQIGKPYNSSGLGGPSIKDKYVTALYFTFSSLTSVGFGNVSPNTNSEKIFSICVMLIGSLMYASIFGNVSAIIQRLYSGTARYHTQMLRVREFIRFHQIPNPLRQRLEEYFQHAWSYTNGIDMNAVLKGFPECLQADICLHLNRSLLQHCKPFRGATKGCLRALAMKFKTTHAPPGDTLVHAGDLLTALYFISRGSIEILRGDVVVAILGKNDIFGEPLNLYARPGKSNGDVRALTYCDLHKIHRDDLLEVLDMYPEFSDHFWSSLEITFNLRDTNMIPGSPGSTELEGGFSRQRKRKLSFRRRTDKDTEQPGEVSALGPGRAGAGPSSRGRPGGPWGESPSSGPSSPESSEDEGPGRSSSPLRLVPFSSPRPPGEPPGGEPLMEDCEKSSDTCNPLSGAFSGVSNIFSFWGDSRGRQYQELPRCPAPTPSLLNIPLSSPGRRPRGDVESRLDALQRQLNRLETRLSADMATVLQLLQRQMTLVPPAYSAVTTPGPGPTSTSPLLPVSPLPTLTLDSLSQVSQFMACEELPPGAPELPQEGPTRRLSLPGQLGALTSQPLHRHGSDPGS
Procedure: By using HEK293 cells overexpressing a human ether-a-go-go-related gene (hERG), the maximum tail current of the hERG IKr current induced by redepolarization pulse subsequent to depolarization pulse was measured by a patch-clamp method, and the percent change (suppression ratio) after 10 minutes from application of a test substance with respect to the maximum tail current before the application of the test substance was calculated (see, Biophysical Journal, vol. 74, pp. 230-241 (1998)).

[2] = Solubility test (DMSO precipitation method, Japanese Pharmacopoeia dissolution test second solution); type: physicochemical; settings: aqueous buffer, kinetic from dmso stock, JP dissolution test second solution pH 6.8, room temperature, quantification range 5 to 100 μM
Procedure: A calibration curve solution was prepared at 0.1, 0.4, and 2 μM by diluting a test substance (a 10 mM DMSO solution) with acetonitrile and adding acetonitrile containing an internal standard substance (candesartan).
A sample solution was prepared as follows. 5 μL of the compound of the present invention (a 10 mM DMSO solution) was added to 495 μL of the Japanese Pharmacopoeia dissolution test second solution (pH: 6.8), followed by stirring at room temperature for 5 hours. Then, the solution was transferred to a solubility filter plate and subjected to suction filtration. The filtrate (20 μL) was diluted with acetonitrile, followed by adding acetonitrile containing an internal standard substance (candesartan).
Each of the calibration curve and sample solutions (5 μL) was injected into LC-MS/MS (Discovery Max, manufactured by Thermo Scientific, Inc.) and subjected to quantification (quantification range: 5 to 100 μM). The solubility in the case where the value equal to or less than the quantification range was obtained was defined as <5 μM, and the solubility in the case where the value equal to or more than the quantification range was obtained was defined as […].

[3] = test system: bladder extracted from rat; assay: Relaxing action on bladder extracted from rat (carbachol-induced contraction, Magnus tube); settings: rat bladder strip, carbachol 1 μM contraction; read-out: IC20 (percent change in tension -20%)
Procedure: Female Jcl:Wistar rats (CLEA Japan, Inc., body weight at use: 170 to 200 g) were anesthetized by intraperitoneal administration of about 40 mg/kg of pentobarbital (Somnopentyl, Schering Plough Animal Health Corporation), and killed by bloodletting. The bladder was extracted by abdominal incision and immediately thereafter immersed in ice-cooled Krebs buffer (Krebs Ringer bicarbonate buffer (Sigma-Aldrich Co. LLC) supplemented with sodium hydrogen carbonate (final concentration: 15 mM) and calcium chloride (final concentration: 2.5 mM)) saturated with a mixed gas (95% O2, 5% CO2).
The bladder body extracted from each rat was cut into an oblong strip shape (about 10×3 mm), whereby a specimen was prepared on ice. Immediately thereafter, the specimen was suspended in a Magnus tube filled with Krebs buffer (37° C.) bubbled with the mixed gas while applying a tension load of 500 mg thereto. Incidentally, the specimen was prepared within 24 hours after extracting the tissue.
After the elapse of one hour or more from the suspension of the specimen, 2.5 M KCl was added thereto to a final concentration of 100 mM, and the specimen in which a contraction reaction could be confirmed was used.
Carbachol (a contraction inducer) contraction was induced at a concentration of 1 μM. […] After the contraction reaction was stabilized, physiological saline or the compound of the present invention was added thereto to a final concentration of 1 nM, 10 nM, 100 nM, 1 μM, and […] in a cumulative manner from a low concentration.
The tension (mg) in the extracted bladder was used as an evaluation item. The tension was read using analysis software WAVE THERMO 1000. A percent change in tension after adding the compound of the present invention when the tension after adding the contraction inducer was taken as 0% was defined as a percent change in tension (%) and used as an evaluation index. The percent change in tension (%) is calculated according to the following formula. percent change in tension (%)={tension (mg) after adding compound of the present invention and the like−tension (mg) before adding contraction inducer}/{tension (mg) after adding contraction inducer−tension (mg) before adding contraction inducer}×100−100
The value at which the percent change in tension (%) was −20% was calculated as IC20 and used as an index of the relaxing action on the extracted bladder.

| Residual ratio [1] | EC50 (Human KCNQ2/3 channel) | solubility at 5 h [2] | Compound | IC50 (hERG IKr current) | IC20 [3] |
| --- | --- | --- | --- | --- | --- |
| 98% | 300 nM |  | CC1(O)CCc2c1cc(Cl)c(NC(=O)NCc1ccc(C(F)(F)F)cn1)c2Cl (single isomer, unassigned) [Example 4(4), 1-(4,6-dichloro-1-hydroxy-1-methyl-2,3-dihydro-1H-inden-5-yl)-3-{[5-(trifluoromethyl)-2-pyridinyl]methyl}urea] | > 10000 nM |  |
| 83% | 50 nM | 76 µM (≈ 29.2 µg/mL) | CC1(O)CCc2c1cc(Cl)c(NC(=O)OCc1ccc(F)cc1)c2Cl (stereo not shown) [Example 3(19), 4-fluorobenzyl(4,6-dichloro-1-hydroxy-1-methyl-2,3-dihydro-1H-inden-5-yl)carbamate] |  |  |
| 77% | 2 nM | 87 µM (≈ 42.5 µg/mL) | O=C(NCc1ccc(C(F)(F)F)cn1)Nc1c(Cl)cc2c(c1Cl)CCC2(O)C(F)(F)F (stereo not shown) [Example 12(4), 1-[4,6-dichloro-1-hydroxy-1-(trifluoromethyl)-2,3-dihydro-1H-inden-5-yl]-3-{[5-(trifluoromethyl)-2 pyridinyl]methyl}urea] |  | 10 nM |
|  |  |  | C[C@@H](NC(=O)Nc1c(Cl)cc2c(c1Cl)CCC2(O)C(F)(F)F)c1ccc(F)cc1 (stereo partly drawn) [Example 12(5), 1-[4,6-dichloro-1-hydroxy-1-(trifluoromethyl)-2,3-dihydro-H-inden-5-yl]-3-[(1R)-1-(4-fluorophenyl)ethyl]urea] | > 10000 nM | 30 nM |
| 100% | 200 nM | 94 µM (≈ 39.9 µg/mL) | Cc1cc(CNC(=O)Nc2c(Cl)cc3c(c2Cl)CCC3(O)C(F)(F)F)no1 (stereo not shown) [Example 12(8), 1-[4,6-dichloro-1-hydroxy-1-(trifluoromethyl)-2,3-dihydro-1H-inden-5-yl]-3-[(5-methyl-1,2-oxazole-3-yl)methyl]urea] |  |  |
| 100% | 60 nM | 78 µM (≈ 29.9 µg/mL) | O=C(NCC1CC1)Nc1c(Cl)cc2c(c1Cl)CCC2(O)C(F)(F)F (stereo not shown) [Example 12(13), 1-(cyclopropylmethyl)-3-[4,6-dichloro-1-hydroxy-1-(trifluoromethyl)-2,3-dihydro-1H-inden-5-yl]urea] |  |  |
| 94% | 5 nM | 82 µM (≈ 35.9 µg/mL) | O=C(NCc1ccc(F)cc1)Nc1c(Cl)cc2c(c1Cl)CCC2(O)C(F)(F)F (stereo not shown) [Example 12, 1-[4,6-dichloro-1-hydroxy-1-(trifluoromethyl)-2,3-dihydro-1H-inden-5-yl]-3-(4-fluorobenzyl)urea] | > 10000 nM | 10 nM |
| 95% | 5 nM | 72 µM (≈ 32.5 µg/mL) | C[C@@H](NC(=O)Nc1c(Cl)cc2c(c1Cl)CC[C@]2(O)C(F)(F)F)c1ccc(F)cc1 [Example 21, 1-[(1R)-4,6-dichloro-1-hydroxy-1-(trifluoromethyl)-2,3-dihydro-1H-inden-5-yl]-3-[(1R)-1-(4-fluorophenyl)ethyl]urea] |  |  |
| 81% | 300 nM | 80 µM (≈ 37 µg/mL) | CC1(C)CC(C)(O)c2cc(Cl)c(NC(=O)NCc3ccc(C(F)(F)F)cn3)c(Cl)c21 (stereo not shown) [Example 35, 1-(4,6-dichloro-1-hydroxy-1,3,3-trimethyl-2,3-dihydro-1H-inden-5-yl)-3-{[5-(trifluoromethyl)-2 pyridinyl]methyl}urea] |  |  |
| 90% | 200 nM | 87 µM (≈ 36.5 µg/mL) | CC1(O)c2cc(Cl)c(NC(=O)NCc3ccc(F)cc3)c(Cl)c2CC1(F)F (stereo not shown) [Example 42, 1-(4,6-dichloro-2,2-difluoro-1-hydroxy-1-methyl-2,3-dihydro-1H-inden-5-yl)-3-(4-fluorobenzyl)urea] | > 10000 nM | 100 nM |
